Experimental data published in the supplement of paper PMC11208160.

test: recombinant barcode read abundance after kanamycin selection (control-corrected) (log10(CPM+1)); higher = more efficient recombination; sequences stand for … in AGTGCAGAGAAAATCGGCCAGTTTTCTCTGCCTGCAGTCCGCATGCCGT…AGATTTATGCAGCGGACTGCCTTTCTCCCAAAGTGATAAACCGGACAGTATCATGGACCGGTTTTCCCGGTAATCCGTATTTGCAAGGTTGGTTTCACT; site = the 11-nt target
In short: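 For this pooled screen, each oligo contained a promoter, a target, a barcode and the J23119-driven first 104 bases of the bridge RNA. Gibson cloning placed it into a vector supplying the remaining 73 bp and a T7-inducible recombinase, and the pool was co-electroporated into E. coli with a donor plasmid. Recombination efficiency is derived from barcode counts per million at recombinant junctions after averaging and control correction, and is expressed on a log scale as log10(CPM+1), with selection on chloramphenicol/ampicillin/kanamycin plus 0.1 mM IPTG against a chloramphenicol/ampicillin LB agar control.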
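Also: IS621 recombinase and bridge RNA in Escherichia coli cells.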

Sequence	recombinant barcode read abundance (log10)
GACTCCGCTTGGGTTCTAACCTGTTGCCT (site GACTCCGCTAG)	0.876
GACTCCGCTTGGGTTCTAACCTGTTGCCT (site TACTCCGCTAG)	0.692
GACTCGACTTGGGTTCTAACCTGTTGCTT (site GAATCAACTAA)	0.122
GACTCGACTTGGGTTCTAACCTGTTGCTT (site GACTCGACTAA)	0.395
GACTCTCCTTGGGTTCTAACCTGTTGCTT (site GACTCTCCTAA)	1.53
GACTCTCCTTGGGTTCTAACCTGTTGCTT (site GACTCTCCTAC)	0.0892
GACTCTCCTTGGGTTCTAACCTGTTGCTT (site GACTCTCCTAG)	0.029
GACTCTCCTTGGGTTCTAACCTGTTGCTT (site GACTCTCCTAT)	0.241
GACTGGTCTTGGGTTCTAACCTGTTGCAT (site GACTGGTCTAG)	0.969
GACTGGTCTTGGGTTCTAACCTGTTGCAT (site GACTGGTCTAT)	1.6
GACTGGTCTTGGGTTCTAACCTGTTGCCT (site GACTGGTCTAG)	1.45
GACTGGTCTTGGGTTCTAACCTGTTGCCT (site GACTGGTCTAT)	0.364
GACTTACCTTGGGTTCTAACCTGTTGCCT (site GACATACCTAG)	0.134
GACTTACCTTGGGTTCTAACCTGTTGCCT (site GACCTACCTAG)	1.43
GACTTACCTTGGGTTCTAACCTGTTGCCT (site GACGTACCTAG)	0.111
GACTTACCTTGGGTTCTAACCTGTTGCCT (site GACTTACCTAG)	0.843
GACTTGCCTTGGGTTCTAACCTGTTGCAT (site GACTTACCTAT)	0.0511
GACTTGCCTTGGGTTCTAACCTGTTGCAT (site GACTTCCCTAT)	0.113

Sequence	recombinant barcode read abundance (log10)
GACTTGCCTTGGGTTCTAACCTGTTGCAT (site GACTTGCCTAT)	0.313
GACTTGCCTTGGGTTCTAACCTGTTGCAT (site GACTTTCCTAT)	0.813
GAGAAGACTTGGGTTCTAACCTGTTGCGT (site ACTCGTCCTTA)	0.118
GAGAAGACTTGGGTTCTAACCTGTTGCGT (site GAGAAGACTAC)	2.56
GAGACATCTTGGGTTCTAACCTGTTGCCT (site GAGAAATCTAG)	0.11
GAGACATCTTGGGTTCTAACCTGTTGCCT (site GAGACATCTAG)	0.732
GAGACATCTTGGGTTCTAACCTGTTGCCT (site GAGAGATCTAG)	0.463
GAGACATCTTGGGTTCTAACCTGTTGCCT (site GAGATATCTAG)	0.206
GAGAGAACTTGGGTTCTAACCTGTTGCCT (site CCATAGGCTCA)	0.0856
GAGAGAACTTGGGTTCTAACCTGTTGCCT (site GAGAGAACTAG)	1.51
GAGAGGTCTTGGGTTCTAACCTGTTGCGT (site GAGAGGTCTAA)	0.502
GAGAGGTCTTGGGTTCTAACCTGTTGCGT (site GAGAGGTCTAC)	2.5
GAGAGGTCTTGGGTTCTAACCTGTTGCGT (site GAGAGGTCTAG)	0.613
GAGAGGTCTTGGGTTCTAACCTGTTGCGT (site GAGAGGTCTAT)	1.53
GAGAGTCCTTGGGTTCTAACCTGTTGCCA (site ATTGAGACTAA)	0.281
GAGAGTCCTTGGGTTCTAACCTGTTGCCA (site GAGAGTCCTTG)	1.24
GAGATTCCTTGGGTTCTAACCTGTTGCCT (site CAGATTCCTAG)	0.0463
GAGATTCCTTGGGTTCTAACCTGTTGCCT (site GAGATTCCTAG)	0.399
